For this experiment, the target named is T1, Guanyl-specific ribonuclease T1 (Aspergillus oryzae (strain ATCC 42149 / RIB 40), UniProt P00651).
T1 sequence (P00651 whole entry): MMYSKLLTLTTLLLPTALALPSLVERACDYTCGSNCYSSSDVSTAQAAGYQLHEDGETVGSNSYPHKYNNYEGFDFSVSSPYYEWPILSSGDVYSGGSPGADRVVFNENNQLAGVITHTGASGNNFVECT
Put plainly: RNase T1 inhibitors, dose response, counter-screen for TPT1 inhibitor project, biochemical, fluorescence polarization, 1536-well (AID 2167).

`Cc1ccc2nc(N=NCc3ccc([N+](=O)[O-])o3)nc(-c3ccccc3)c2c1` yielded a half-maximal inhibitory concentration (IC50) of more than 55.7 µM.

One may read the IC50 as the point on the concentration scale where inhibition reaches its midpoint. Read a low IC50 as greater potency.

These data come from BindingDB's records for doi:10.7270/Q22F7KVM (The Scripps Research Institute Molecular Screening Center, 2009).
